According to US20240173432A1, “Compositions and Methods for Treatment of Myotonic Dystrophy Type 1 with CRISPR/SluCas9” (Vertex Pharmaceuticals Incorporated, priority 2021, published 2024):

How the values were obtained:
[1] = tested on: CUG foci in primary DM1 patient myoblasts; assay: Single-cut screening: FISH staining of CUG RNA foci; format: cell-based, human; settings: for frequency of CUG foci free myoblast nuclei (foci number per nucleus=0) / frequency of myoblast nuclei that contain more than three CUG foci: RNA foci distribution analysis (FIG. 6A-B); for % of CUG foci free nuclei (DNA-PKi) / % of CUG foci free nuclei (Vehicle): single sgRNA, primary DM1 patient myoblasts; for % of CUG foci free nuclei (DNA-PKi): DNA-PKi treated
Summary of the method: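 CD56-purified primary DM1 patient myoblasts nucleofected with SluCas9:sgRNA RNP (30:90 pmol, single-cut), then DMSO or 3 μM DNA-PK inhibitor for 48 h. At 72 h post-nucleofection, cells fixed and stained for CUG foci with Cy3-PNA(CAG)5 probe (1 ng/μL, 80 °C), co-stained for MBNL1 and Hoechst, imaged by high-content confocal microscopy.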

[2] = tested on: 3′ UTR of the human DMPK gene; assay: Single-cut screening: indel editing efficiency by Sanger sequencing and ICE analysis in primary DM1 patient myoblasts; format: cell-based; settings: vehicle-treated samples; for indel efficiency (Sanger sequencing and ICE analysis): single-cut, SluCas9 RNP, 72 hrs post nucleofection, wild-type allele; for Indel efficiency: single SluCas9 sgRNA RNP in primary DM1 patient myoblasts, Sanger sequencing and ICE analysis
Summary of the method: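 Indels were estimated by ICE from Sanger chromatograms of PCR amplicons covering the DMPK 3′ UTR wild-type allele, using only vehicle-treated samples; sgRNAs with R2<0.9 are flagged. Samples came from primary DM1 patient myoblasts (2 × 10^5) harvested 72 h after nucleofection with 30 pmol SluCas9 and 90 pmol single sgRNA RNP.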

Row | Substance | frequency of CUG foci free myoblast nuclei (foci number per nucleus=0) [1] | frequency of myoblast nuclei that contain more than three CUG foci [1] | % of CUG foci free nuclei (DNA-PKi) [1] [%] | % of CUG foci free nuclei (Vehicle) [1] [%] | indel efficiency (Sanger sequencing and ICE analysis) [2] | Indel efficiency [2] [%] | percentage of CUG foci free nuclei ([1]; single-cut, DNA-PKi treatment (3 μM Compound 6, 48 hrs)) [%]
1 | ggggcTCGAAGGGTCCTTGTAG (as printed in the source, key not given here) [SluU63] | increased the frequency | reduced the frequency | 70.99 | 44.78 | high editing IN4DEL efficiency |  | 
2 | GCCCCGTTGGAAGACTGAGTGC (listed as DNA, chemistry not fully specified) [SluU08] |  |  | 61.56 | 31.42 | high editing IN4DEL efficiency | 87 | 
3 | ATGGGCAAACTGCAGGCCTGGG (listed as DNA, chemistry not fully specified) [SluD14] | increased the frequency | reduced the frequency | 81.82 | 53.12 | high editing IN4DEL efficiency |  | 81.82
4 | gggcTCGAAGGGTCCTTGTAGC (as printed in the source, key not given here) [SluU64] |  |  | 67.39 | 37.58 | high editing IN4DEL efficiency | 59 | 
